Reference: US20220323380A1, “DRUG COMBINATION FOR USE IN THE TREATMENT OF INFLAMMATORY DISEASES” (ISANAS AG, priority 2019, published 2022)

Tests used:
[1] = test system: patient suffering from MS; details: daily 300 mg bupropion over four weeks, MRI after three months, MS patient with depression; cited from earlier work
MS patients = details: cited from earlier work
[2] = in vivo; cited from earlier work
[3] = humans, compared with MK-4 (Sato 2012); cited from earlier work
EAE rat model = details: cited from earlier work
PC12D cells = details: cell cultures (Tsang 2002); cited from earlier work
MS-patients = assay: Treatment of MS patients with the triple combination (case reports, MS score); assay type: in vivo, human; details: Example 2: one MS patient, own words
From the text: The scoring ranges from zero to ten points and is the sum of the physical score and cognitive score. Attributing half points was allowed to better cover the full scale and subtlety of MS symptoms.

In the case of CC(NC(C)(C)C)C(=O)c1cccc(Cl)c1 (centres unmarked) [bupropion], the “MRI analysis of lesions” value [1] is given as “rather showed a reduction of the lesions than a progression”.
In the case of Vitamin D, the “EDSS scores and annual relapse rate (ARR)” value (MS patients; meta-analysis Zheng 2018) is given as “no therapeutic effect” and the “recurrence of relapse, worsening of disability (EDSS), MRI lesions” value (MS patients; review Jagannath 2018) is given as “no effect”.
For CC1=CC(=O)c2ccccc2C1=O [VK3, 2-methylnaphthalene-1,4-dione], the “reason for discontinued sales as prescription drug” value [2] is listed as “adverse effects and liver toxicity”.
In the case of C=C1CC[C@H](O)C/C1=C/C=C1\CCC[C@]2(C)[C@@H]([C@H](C)CCCC(C)C)CC[C@@H]12 [vitamin D3, cholecalciferol], the “correlation with treatment effect in MS” value (MS patients; meta-analysis (Steinwart 2018), weekly dosage of 20,000 IU D3) is listed as “did not provide any relevant correlation with treatment effect”.
For CC(C)=CCC/C(C)=C/CC/C(C)=C/CC/C(C)=C/CC/C(C)=C/CC/C(C)=C/CC/C(C)=C/CC1=C(C)C(=O)c2ccccc2C1=O [MK-7], the “bioavailability after oral intake” value [3] is given as “much higher bioavailability after oral intake than MK-4”.
In the case of menaquinone [VK2], the “efficacy in EAE” value (EAE rat model; given after the onset of EAE) is given as “not effective”, the “severity of EAE” value (EAE rat model; prophylactic intraperitoneal administration, 62.5 mg/kg/d) is given as “ameliorated the severity of EAE” and the “nerve growth factor-mediated neurite outgrowth” value (PC12D cells) is given as “promoting activity”.
In the case of “ocrelizumab: humanised monoclonal antibody that targets the CD20 marker on B lymphocytes”, the “patient's comparison of ocrelizumab with the combination therapy” value (MS-patients) is reported as “could not achieve what this combination therapy could”.
In the case of CC1=C(C/C=C(\C)CCC[C@H](C)CCC[C@H](C)CCCC(C)C)C(=O)c2ccccc2C1=O [vitamin K1, phylloquinone], the “nerve growth factor-mediated neurite outgrowth” value (PC12D cells) is given as “promoting activity”.
